Source: patent publication US20250243488A1, “METHODS OF MODULATING PROGRANULIN EXPRESSION USING ANTISENSE OLIGONUCLEOTIDES TARGETING REGULATORY RNAS” (Camp4 Therapeutics Corporation, priority 2022, published 2025)
Oligonucleotides are written 5' to 3', each unit as a sugar letter and its base; * is a phosphorothioate linkage, no mark a phosphodiester; rarer units and linkages stand in square brackets, end groups in braces. Plain capitals give the bases only. e = 2'-O-(2-methoxyethyl) (MOE); l = locked nucleic acid (LNA); [5mC] = 5-methylcytosine; d = 2'-deoxy (DNA)

System: GRN mRNA
Experiment: GRN mRNA qPCR in SK-N-AS cells transfected with ASOs
Format: cell-based, human
Details: SK-N-AS, normalized to CO-1589
In short: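 Fold change in GRN mRNA, by qPCR with GAPDH/PPIA housekeeping normalization, referenced to steric non-targeting control ASO(s) such as CO-1589. ASOs were transfected into SK-N-AS neuroblastoma cells in dose titrations (20 to 160 nM initially). Cells were harvested 48 hours post-transfection.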

| Substance | 30 nM FC (GRN mRNA) (Table 12) [FC] | 60 nM FC (GRN mRNA) (Table 12) [FC] | 120 nM FC (GRN mRNA) (Table 12) [FC] | 30 nM FC (GRN mRNA) (Table 13) [FC] | 60 nM FC (GRN mRNA) (Table 13) [FC] | 120 nM FC (GRN mRNA) (Table 13) [FC] |
| --- | --- | --- | --- | --- | --- | --- |
| CO-6388: ASO based on parent ASO CO-3462 (antisense eT*eA*eG*eG*eA*lG*dA*dA*lT*d[5mC]*dG*l[5mC]*dT*dT*lT*eG*eG*eG*eA*eG) | 1.1 | 1.0 | 1.4 | – | – | – |
| CO-6389: ASO based on parent ASO CO-3462 (antisense eT*eA*eG*lG*eA*dG*dA*lA*dT*d[5mC]*dG*l[5mC]*dT*dT*dT*lG*eG*eG*eA*eG) | 1.0 | 1.0 | 2.1 | – | – | – |
| CO-6390: ASO based on parent ASO CO-3462 (antisense eT*eA*eG*eG*lA*dG*dA*dA*lT*d[5mC]*dG*d[5mC]*lT*dT*dT*eG*lG*eG*eA*eG) | 1.3 | 1.3 | 1.5 | – | – | – |
| CO-6391: ASO based on parent ASO CO-3462 (antisense eT*eA*eG*eG*eA*lG*eA*eA*lT*e[5mC]*eG*l[5mC]*eT*eT*lT*eG*eG*eG*eA*eG) | 1.3 | 1.0 | 1.6 | – | – | – |
| CO-6392: ASO based on parent ASO CO-3462 (antisense eT*eA*eG*lG*eA*lG*eA*lA*eT*l[5mC]*eG*l[5mC]*eT*lT*eT*lG*eG*lG*eA*eG) | 1.0 | 0.8 | 1.0 | – | – | – |
| CO-6393: ASO based on parent ASO CO-3462 (antisense eT*eA*lG*eG*lA*eG*lA*eA*lT*e[5mC]*lG*e[5mC]*lT*eT*lT*eG*lG*eG*eA*eG) | 0.9 | 0.7 | 1.0 | – | – | – |
| CO-6394: ASO based on parent ASO CO-3462 (antisense eT*eA*lG*eG*eA*lG*eA*eA*lT*e[5mC]*eG*l[5mC]*eT*eT*lT*eG*eG*lG*eA*eG) | 1.1 | 0.9 | 1.3 | – | – | – |
| CO-6395: ASO based on parent ASO CO-3462 (antisense eT*eA*eG*eG*lA*eG*eA*eA*lT*e[5mC]*eG*e[5mC]*lT*eT*eT*eG*lG*eG*eA*eG) | 1.0 | 1.3 | 1.6 | – | – | – |
| CO-6396: ASO based on parent ASO CO-3462 (antisense eT*eA*eG*lG*eA*eG*eA*lA*eT*e[5mC]*eG*l[5mC]*eT*eT*eT*lG*eG*eG*eA*eG) | 1.4 | 1.9 | 1.9 | – | – | – |
| CO-6397: ASO based on parent ASO CO-3462 (antisense eT*eA*eG*eG*eA*lG*eA*eA*eT*e[5mC]*lG*e[5mC]*eT*eT*eT*lG*eG*eG*eA*eG) | 1.4 | 1.8 | 1.8 | – | – | – |
| CO-6398: ASO based on parent ASO CO-3462 (antisense eT*eA*eG*eG*lA*eG*eA*eA*eT*l[5mC]*eG*e[5mC]*eT*eT*lT*eG*eG*eG*eA*eG) | 1.3 | 1.5 | 1.8 | – | – | – |
| CO-6399: ASO based on parent ASO CO-3462 (antisense eG*eT*eA*eG*eG*eA*dG*dA*dA*dT*d[5mC]*dG*d[5mC]*dT*dT*dT*eG*eG*eG*eA*eG*e[5mC]) | 1.3 | 1.6 | 1.9 | – | – | – |
| CO-6400: ASO based on parent ASO CO-3462 (antisense eG*eT*eA*eG*eG*eA*eG*eA*eA*eT*e[5mC]*eG*e[5mC]*eT*eT*eT*eG*eG*eG*eA*eG*e[5mC]) | 1.1 | 1.3 | 1.3 | – | – | – |
| CO-6401: ASO based on parent ASO CO-3462 (antisense eG*eT*eA*eG*eG*dA*dG*dA*eA*dT*d[5mC]*dG*d[5mC]*eT*dT*dT*dG*eG*eG*eA*eG*e[5mC]) | 1.2 | 1.5 | 1.7 | – | – | – |
| CO-6402: ASO based on parent ASO CO-3462 (antisense eG*eT*eA*eG*eG*lA*dG*dA*lA*dT*d[5mC]*dG*d[5mC]*lT*dT*dT*lG*eG*eG*eA*eG*e[5mC]) | 1.5 | 1.6 | 1.8 | – | – | – |
| CO-6403: ASO based on parent ASO CO-3462 (antisense eG*eG*eT*eA*eG*eG*eA*dG*dA*dA*dT*d[5mC]*dG*d[5mC]*dT*dT*dT*eG*eG*eG*eA*eG*e[5mC]*eA) | 1.6 | 2.2 | 2.4 | – | – | – |
| CO-6404: ASO based on parent ASO CO-3462 (antisense eG*eG*eT*eA*eG*eG*eA*eG*eA*eA*eT*e[5mC]*eG*e[5mC]*eT*eT*eT*eG*eG*eG*eA*eG*e[5mC]*eA) | 1.3 | 1.3 | 1.5 | – | – | – |
| CO-6405: ASO based on parent ASO CO-3462 (antisense eG*eG*eT*eA*eG*dG*dA*eG*dA*dA*eT*d[5mC]*dG*e[5mC]*dT*dT*eT*dG*dG*eG*eA*eG*e[5mC]*eA) | 1.1 | 1.3 | 1.3 | – | – | – |
| CO-6406: ASO based on parent ASO CO-3462 (antisense eG*eG*eT*eA*eG*dG*dA*lG*dA*dA*lT*d[5mC]*dG*l[5mC]*dT*dT*lT*dG*dG*eG*eA*eG*e[5mC]*eA) | 1.4 | 1.4 | 1.7 | – | – | – |
| CO-6407: ASO based on parent ASO CO-3462 (antisense TAGGAGAATCGCTTTGGGAG; 2'-MOE, 5-methylC, mixed PO/PS; listed as RNA; modified_base 1..3: mod_base = OTHER; note = Phosphorothioate linkage; modified_base 6..15: mod_base = OTHER; modified_base 1..9: mod_base = OTHER; modified_base 18..20: mod_bas) | 1.1 | 1.2 | 1.6 | – | – | – |
| CO-6408: ASO based on parent ASO CO-3462 (antisense eT*eA*eG*eGeAeGeA*eA*eT*e[5mC]*eG*e[5mC]*eT*eTeTeGeG*eG*eA*eG) | 1.0 | 1.1 | 1.5 | – | – | – |
| CO-6409: ASO based on parent ASO CO-3462 (antisense eT*eA*eGeG*eA*eGeA*eA*eTe[5mC]*eG*e[5mC]eT*eT*eTeG*eG*eGeA*eG) | 1.1 | 1.1 | 1.5 | – | – | – |
| CO-6410: ASO based on parent ASO CO-3462 (antisense eT*eAeG*eG*eAeG*eA*eAeT*e[5mC]*eGe[5mC]*eT*eTeT*eG*eGeG*eA*eG) | 1.1 | 1.0 | 1.6 | – | – | – |
| CO-6411: ASO based on parent ASO CO-3462 (antisense eT*eA*eGeGeA*eG*eA*eA*eT*e[5mC]*eG*e[5mC]*eT*eT*eT*eGeGeG*eA*eG) | 1.1 | 1.4 | 1.8 | – | – | – |
| CO-6412: ASO based on parent ASOs CO-4363 and CO-4364 (antisense eG*eG*eA*e[5mC]*eT*dT*dG*dG*dG*dA*dG*dT*dG*dG*dT*dG*eA*e[5mC]*eT*eG*eA) | – | – | – | 1.0 | 0.8 | 0.9 |
| CO-6413: ASO based on parent ASOs CO-4363 and CO-4364 (antisense eG*eG*eA*e[5mC]*eT*dT*dG*dG*eG*dA*dG*dT*eG*dG*dT*dG*eA*e[5mC]*eT*eG*eA) | – | – | – | 1.0 | 0.6 | 0.7 |
| CO-6414: ASO based on parent ASOs CO-4363 and CO-4364 (antisense eG*eG*eA*l[5mC]*eT*lT*eG*lG*eG*lA*eG*lT*eG*lG*eT*lG*eA*l[5mC]*eT*eG*eA) | – | – | – | 1.6 | 1.4 | 1.3 |
| CO-6415: ASO based on parent ASOs CO-4363 and CO-4364 (antisense eG*eG*eA*l[5mC]*eT*eT*lG*eG*eG*lA*eG*eT*lG*eG*eT*lG*eA*e[5mC]*lT*eG*eA) | – | – | – | 1.3 | 1.6 | 1.6 |
